# Assay: in vitro
# Settings: human, hela cells, % viability
row,SMILES,"viability at 28.5 h, 10 µM [%]"
1,COCCn1c(SCc2ccc([N+](=O)[O-])cc2)nc2c([nH]c3ccccc32)c1=O [CBK294415],90
2,COc1ccc(C2C(C(=O)Nc3ccc(C)cc3)=C(C)Nc3ncnn32)cc1OC (centres unmarked) [CBK294416],90.9
3,Cn1c(NC(=O)c2ccccc2[N+](=O)[O-])cc(=O)n(C)c1=O [CBK294417],84
4,O=C1CCc2cc(S(=O)(=O)NC(c3ccccc3)c3ccccc3)cc3c2N1CCC3 [CBK294418],95.6
5,CC1C(=O)N2CCCc3cc(S(=O)(=O)NCc4ccc5c(c4)OCO5)cc1c32 (centres unmarked) [CBK294419],107
6,COc1cccc2sc(N(Cc3cccnc3)C(=O)c3ccc(S(=O)(=O)N(C)C)cc3)nc12 [CBK294420],103
7,O=C(CCS(=O)(=O)c1ccccc1)N(Cc1cccnc1)c1nc2c(F)cccc2s1 [CBK294422],81.5
8,COc1ccc2sc(N(Cc3cccnc3)C(=O)CCc3ccccc3)nc2c1 [CBK294423],81.2
9,CSc1ccccc1NC(=O)c1cccn(Cc2ccc(C)cc2)c1=O [CBK294426],87
10,COc1ccc(-c2ccc(OCCNC(=O)c3cccc(F)c3)nn2)cc1 [CBK294428],87.1
11,O=C(NCCOc1ccc(-c2ccc(F)cc2)nn1)c1ccc(Br)o1 [CBK294429],83.1
12,COc1cccc(NC(=O)Cn2cc(OC)c(=O)cc2CN2CCOCC2)c1 [CBK294430],87.2
13,CN1CC(=O)N(CC(=O)N2CC=C(c3ccccc3)CC2)c2ccccc2C1=O [CBK294433],88
14,Cc1ccc(NC(=O)C2CC(=O)Nc3nc(SCc4ccccc4C)[nH]c(=O)c32)c(C)c1 (centres unmarked) [CBK294438],91
15,CCCCOc1ccccc1C1CC(=O)Nc2c(-c3ccccc3F)csc21 (centres unmarked) [CBK294439],81
16,CC(C)CCNC(=O)c1cccc(-n2c(=S)[nH]c3cc(Cl)ccc3c2=O)c1 [CBK294444],107
17,O=C(CCCn1nnc2ccccc2c1=O)NCc1cccc(Cl)c1 [CBK294446],82.8
18,Cc1ccc(-n2ncc3c(Nc4c(C)n(C)n(-c5ccccc5)c4=O)ncnc32)c(C)c1 [CBK294449],82.6
19,O=C(c1ccc(S(=O)(=O)c2ccc(F)cc2)c([N+](=O)[O-])c1)N1CCCCCC1 [CBK294453],78.3
20,O=C(CCNC(=O)c1ccc(Br)o1)NCc1ccccc1Cl [CBK294454],81.5
21,O=C(O)c1[nH]c2ccccc2c1/C=N/Cc1ccccc1Cl [CBK294456],98.7
22,COc1ccccc1CNC(=O)c1cc(-c2ccccc2)nc2ccccc12 [CBK294458],104

row,SMILES,"viability at 28.5 h, 10 µM [%]"
1,CSc1cccc(NC(=S)N2CCC(N(C)C(C)C)CC2)c1 [CBK294463],86.8
2,O=C(NC1CCCC1)c1cc(=O)n(Cc2ccc(Cl)cc2)c2ccccc12 [CBK294464],104
3,COc1ccc(-c2cc(C(=O)NC(C)c3ccccc3)c3cc(C(C)C)ccc3n2)cc1 (centres unmarked) [CBK294466],101
4,Cc1ccc(CNC(=O)C2CCN(S(=O)(=O)N3CCOCC3)CC2)cc1 [CBK294467],103
5,CCC1CCC2(CC1)NC(=O)N(Cc1cc(-c3ccccc3)on1)C2=O (centres unmarked) [CBK294977],90.1
6,COc1ccc2cc(CNc3ccc(F)c([N+](=O)[O-])c3)c(Cl)nc2c1 [CBK295133],93.1
7,CC(C)NC(=O)c1cccc2c1CCCN2Cc1nc2ccccc2o1 [CBK295135],101
8,COc1ccc2c(CC(=O)Nc3sccc3C(N)=O)coc2c1 [CBK295137],101
9,COc1ccc(O)c(C(=O)c2cnn(-c3ccccn3)c2)c1 [CBK295141],97.9
10,O=c1[nH]nc(SCc2csc(COc3ccc(Cl)cc3)n2)n1C1CC1 [CBK295146],87.9
11,COc1ccc(NS(=O)(=O)c2cc(C(=O)O)cc(C)c2C)cc1OC [CBK295148],82.9
12,COc1ccc2c(CC(=O)Nc3cccc(-c4csc(C)n4)c3)coc2c1 [CBK295149],94
13,Cn1cnnc1SCC(=O)Nc1c(F)cccc1F [CBK295150],88.2
14,O=C(c1ccccn1)N(CCc1ccccc1)c1nc2ccccc2s1 [CBK295151],97.5
15,CC(NCC(=O)N1c2ccccc2NC(=O)CC1C)c1ccc(-c2ccccc2)cc1 (centres unmarked) [CBK295155],84.2
16,C=CCOc1ccc(CN(C)Cc2nc3cc(C(=O)O)ccc3c(=O)[nH]2)cc1 [CBK295156],101
17,CC(NCc1nc(=O)c2sccc2[nH]1)c1ccc2c(c1)OCCO2 (centres unmarked) [CBK295157],88.4
18,Cc1ccc(C(=O)NC(C)c2nc3ccccc3n2Cc2ccc(C(=O)O)o2)cc1 (centres unmarked) [CBK295159],107
19,O=C(CSc1nnnn1CC1CCCO1)N1CC=C(c2ccccc2)CC1 (centres unmarked) [CBK295160],82
20,CCN(CC)S(=O)(=O)c1ccc2c(c1)CCCN2C(=O)c1ccc(C#N)cc1 [CBK295161],85.9
21,CC(=O)Nc1ccc(NS(=O)(=O)c2ccc(C)c(C(=O)O)c2)cc1 [CBK295162],85.9
22,Cc1cc(C)cc(-c2nnc(SCCC(=O)NC(N)=O)o2)c1 [CBK295164],107

row,SMILES,"viability at 28.5 h, 10 µM [%]"
1,CCOC(=O)C1CCN(Cn2nc(-c3cccs3)oc2=S)CC1 [CBK295165],85.9
2,CC(C)c1nn(CN(C)Cc2ccccc2)c(=S)[nH]1 [CBK295166],102
3,O=C(NCc1cn2ccccc2n1)c1ccc(C2SCCS2)cc1 [CBK295167],83.5
4,CCCn1c(SC(C)C(=O)Nc2ccc(S(=O)(=O)NC(C)C)cc2)n[nH]c1=O (centres unmarked) [CBK295169],87.9
5,Cc1ccc(SCCC(=O)NC(CCC(=O)O)C(=O)O)cc1 (centres unmarked) [CBK295173],88
6,Cc1ccc(SCCC(=O)NC(CC(=O)O)C(=O)O)cc1 (centres unmarked) [CBK295174],103
7,O=C(Cc1csc(-c2ccc(F)cc2)n1)Nc1ccc(F)cc1 [CBK295177],82.3
8,Cc1[nH]c(C(=O)NCCc2ccco2)c(C)c1C(=O)OC(C)C [CBK295180],84.1
9,CN(C)c1cccc(C(=O)Nc2ccccc2N2CCOCC2)c1 [CBK295184],76.2
10,CN(CC(=O)Nc1ccccc1N1CCCC1)Cc1cnn(Cc2ccccc2)c1 [CBK295187],105
11,CN(CC(=O)Nc1ccc(N(C)C)cc1)Cc1ccc(F)cc1 [CBK295188],86.1
12,Cn1c(SCc2cc(-c3ccc(Cl)cc3)no2)nnc1-c1ccco1 [CBK295193],81.9
13,Cc1ccnc2nc(C(=O)Nc3ccc4c(c3)CCC4)nn12 [CBK295194],74.9
14,NC(=O)COc1ccc(C2Nc3ccccc3C(=O)N2C2CC2)cc1 (centres unmarked) [CBK295198],98.2
15,Cn1nc(-c2ccc(Cl)cc2)cc1NC(=O)Cn1nnc(-c2ccc(F)cc2)n1 [CBK295203],82.7
16,Cc1ccc(C)c(-n2nnnc2SC(C)C(=O)N2CCCC2)c1 (centres unmarked) [CBK295204],79.9
17,C=CCn1c(-c2sc(NC(=O)c3ccc(C)c(C)c3)nc2C)n[nH]c1=S [CBK295294],88.7
18,O=C(O)c1cccc(NS(=O)(=O)c2ccc(S(=O)(=O)N3CCCCC3)cc2)c1 [CBK295295],101
19,O=C(O)c1cc(Cl)c(OCc2cc(-c3ccccc3)no2)c(Cl)c1 [CBK295297],86.7
20,C=CCn1c(Cc2csc(NC(=O)c3ccc(C(C)=O)s3)n2)n[nH]c1=S [CBK295299],77
21,CCOc1ccc(-c2nc(CC(=O)O)cs2)cc1 [CBK295300],87.7
22,Cc1nn(CC(C)C)c(C)c1CCC(=O)N(C)Cc1c(C)nn(-c2ccccc2)c1C [CBK295301],108

row,SMILES,"viability at 28.5 h, 10 µM [%]"
1,Cc1cc(COC(=O)c2nn(-c3ccc(F)cc3)c3c2CCCC3)on1 [CBK295305],105
2,CCOC(=O)c1ccc(S(=O)(=O)Nc2cc(C(=O)O)ccc2F)cc1 [CBK295308],84
3,Cc1cc(C(=O)CSc2nnc(C3CC3)[nH]2)c(C)n1-c1cccc(C(F)(F)F)c1 [CBK295310],80.6
4,C=CCn1c(Cc2csc(NC(=O)Cc3cc(OC)c(OC)c(OC)c3)n2)n[nH]c1=S [CBK295311],87.1
5,O=c1[nH]c2ccc(NS(=O)(=O)c3ccc4c(c3)OCCCO4)cc2[nH]1 [CBK295315],87.7
6,O=[N+]([O-])c1ccc(NC(c2ccccc2)C2CC2)nc1 (centres unmarked) [CBK295317],96.6
7,C=CCn1c(Cc2csc(NC(=O)c3cnc(C)cn3)n2)n[nH]c1=S [CBK295319],90.4
8,O=C(Cn1nc(C(=O)O)c2ccccc2c1=O)NCc1ccc(Cl)cc1Cl [CBK295320],85.4
9,COc1ccc(NC(=O)C(C)n2nc(C(=O)O)c3ccccc3c2=O)cc1 (centres unmarked) [CBK295322],107
10,O=C(NCc1nc2ccccc2s1)c1ccc2c(c1)OCCO2 [CBK295325],107
11,Cc1ccc(C(=O)Nc2nc(C)c(-c3n[nH]c(=S)n3C)s2)cn1 [CBK295327],91.8
12,C=CCn1c(Cc2csc(NC(=O)c3cc4ccccc4o3)n2)n[nH]c1=S [CBK295329],104
13,COc1cc2c(cc1OC)CN(C(=O)c1ccc3[nH]cnc3c1)CC2 [CBK295331],52.8
14,CC1CCN(S(=O)(=O)c2ccc(NC(=O)C3=COCCO3)cc2)CC1 [CBK295332],102
15,CCc1ccc(CN(C)C(=O)COC(=O)c2cc(-c3ccccc3)nc3onc(C)c23)cc1 [CBK295334],89.5
16,Cc1nc(NC(=O)c2cccc(NC(=O)C3CCCO3)c2)sc1-c1n[nH]c(=S)n1C (centres unmarked) [CBK295341],86.9
17,COc1ccc(-c2n[nH]c(=S)n2CC(=O)Nc2ccc(NC(=O)CC(C)C)cc2)cc1 [CBK295342],100
18,Cc1cc(NS(=O)(=O)c2ccc(Oc3ccc(-c4ccccc4)cc3)nc2)no1 [CBK295343],90.8
19,Cc1ccc(C(CC(=O)O)NC(=O)c2ccc(S(=O)(=O)N3CCCC(C)C3)cc2)cc1 (centres unmarked) [CBK295345],95.7
20,O=C(c1ccc2[nH]nnc2c1)N1CCN(S(=O)(=O)Cc2ccccc2)CC1 [CBK295346],79.3
